This is an account of results in patent US20110230476A1, “PI3 KINASE INHIBITORS AND USES THEREOF” (AVILA THERAPEUTICS, INC., priority 2009, published 2011).

In assay [1] the test system is PI3K. Kind of assay: PI3K HCT116 cellular assay (Western blot). The assay is classed as cell-based. To be noted: Homo sapiens, HCT-116, HCT116 colon cancer cells, 1 hour incubation, read-out: PI3K Inhibition. The method, then: PI3K HCT116 Cellular Assay
Selected compounds were assayed in HCT116 colon cancer cells. […] Cells were then washed with PBS, lysed and the protein lysates were then recovered and analyzed by Western blot.
For orientation: In western blotting, separated proteins are transferred to a membrane and probed.

In assay [2] the test system is SK-OV-3 cells. Kind of assay: SK-OV-3 cell proliferation assay. The assay is classed as cell-based. To be noted: Homo sapiens; SK-OV-3 proliferation, 72 hours, Cell Titer Glo. Here is the method:
SK-OV-3 Cell Proliferation Assay
For the SK-OV-3 proliferation Assay, 5000 cells per well were plated in Growth Media (DMEM, 10% FBS, 1% 1-glutamine, 1% penicillin/streptomycin) in 96 well plates. The following day, compounds were added to duplicate wells at concentrations of 10 uM and 3-fold dilutions down to 40 nM. The plates were returned to the incubator for 72 hours and then the assays were developed using Cell Titer Glo (Promega, Madison, Wis.) according to manufacturer's instructions.
Background: ATP-based viability assays read luminescence as a measure of living cells.

The target in assay [3] is T1, PI3Kγ (p120γ) (Homo sapiens, UniProt P48736).
T1 construct: purchased BPS Bioscience (San Diego, Calif.) or Millipore (Billerica, Mass.)
Kind of assay: HTRF assay, potency against active PI3Kγ. The assay is classed as biochemical. The following applies: [ATP]=50 μM, [di-C8-PIP2]=10 μM, 30 min pre-incubation, read-out: PI3Kγ Inhibition. An outline of the steps: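 End-point competition HTRF: enzyme (p110β/p85α 0.75 nM; p120γ 2-2.5 nM) with 10 μM di-C8-PIP2 pre-incubated 30 min at 25° C with compound, then 50 μM ATP added for 30-60 min at 25° C. Stopped, detected after 1 and 18 h; IC50 from variable-slope fit.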
On the technique in general: TR-FRET usually uses a lanthanide donor and a delayed reading to cut background.

In assay [4] the target is PI3Kα (Homo sapiens, UniProt P42336). Description: Mass spectrometry of intact PI3Kα (Johns Hopkins), 3 hr incubation. Further details: Johns Hopkins. The class given is binding. The following applies: 10× fold excess of compound, MALDI. The method, then:
Mass Spectrometry for PI3K
Intact PI3Kα (Johns Hopkins) was incubated for 3 hr at a 10× fold excess of II-a-45 or II-a-49 to protein. Aliquots (3 μL) of the samples were diluted with 10 μL of 0.1% TFA prior to micro C4 ZipTipping directly onto the MALDI target using Sinapinic acid as the desorption matrix (10 mg/ml in 0.1% TFA:Acetonitrile 50:50).

Assay [5] deals with HCT116 cells. Kind of assay: HCT-116 cell proliferation assay. The class given is cell-based. The following applies: Homo sapiens, 72 hours, Cell Titer Glo. The method, then: HCT-116 Cell Proliferation Assay
For the HCT116 Proliferation Assay, 3000 cells per well were plated in Growth Media (DMEM, 10% FBS, 1% 1-glutamine, 1% penicillin/streptomycin) in 96 well plates. The following day, compounds were added to duplicate wells at concentrations of 10 uM and 3-fold dilutions down to 40 nM. The plates were returned to the incubator for 72 hours and then the assays were developed using Cell Titer Glo (Promega, Madison, Wis.) according to manufacturer's instructions.

For assay [6], the target named is T2, PI3Kα (p110α/p85α) (Homo sapiens, UniProt P42336).
T2 construct: purchased BPS Bioscience (San Diego, Calif.) or Millipore (Billerica, Mass.)
Kind of assay: HTRF assay, potency against active PI3Kα. The assay is classed as biochemical. The following applies: HTRF; [ATP]=50 μM, [di-C8-PIP2]=10 μM; 30 min pre-incubation; read-out: PI3Kα Inhibition. An outline of the steps: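 Active p110/p85α lipid kinase reactions were started with ATP and run 30-60 minutes at 25 °C, then stopped and developed with HTRF detection mix. HTRF ratio converted to % inhibition against ±enzyme controls; IC50 from log[inhibitor] vs response, variable slope.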

In assay [7] the target is T3, PI3Kβ (p110β/p85α) (Homo sapiens, UniProt P42338).
T3 construct: purchased BPS Bioscience (San Diego, Calif.) or Millipore (Billerica, Mass.)
Description: HTRF assay, potency against active PI3Kβ. The assay is classed as biochemical. To be noted: [ATP]=50 μM, [di-C8-PIP2]=10 μM, 30 min pre-incubation, read-out: PI3Kβ Inhibition. The method, then: Homogeneous Time Resolved Fluorescence (HTRF) Assay Protocol for Potency Assessment Against the Active Forms of PI3Kα, PI3Kβ, and PI3Kγ
The mechanics of the assay platform are best described by the vendor (Millipore, Billerica, Mass.) on their website at the following URL: www.millipore.com/coa/tech1/74jt4z.
Briefly, Stop solution (Stop A, #33-007 and Stop B, #33-009; 3:1 ratio) and Detection Mix (from DMC, #33-015 with DMA, #33-011 and DMB, #33-013; 18:1:1 ratio) were prepared as recommended by the manufacturer about 2 hrs prior to use. […] Lipid kinase reactions were started with the addition of 5 μL of ATP solution, mixed for 15 sec on a rotary plate shaker and incubated for 30-60 minutes at 25° C. Next, reactions were stopped with a 5 μL addition of Stop solution immediately followed by a 5 μL volume of Detection Mix. […] At the conclusion of each assay, the HTRF ratio from fluorescence emission values for each well was calculated and % Inhibition determined from averaged controls wells (+/−PI3K enzyme). % Inhibition values for each compound were then plotted against inhibitor concentration to estimate IC50 from log [Inhibitor] vs Response, Variable Slope model in GraphPad Prism from GraphPad Software (San Diego, Calif.).

For assay [8], the system named is SKOV3 cells. Description: GI50 determinations in SKOV3 cells. The assay is classed as cell-based. To be noted: Homo sapiens, SK-OV-3; SKOV3 cells, 96 hours, Cell Titer Glo. Here is the method: GI50 Determinations in SKOV3 Cells
A standard curve ranging from 10,000 to 50,000 cells was set up in a separate plate and allowed to adhere to the plate for 4-6 hours, at which time the plate was developed using Cell Titer-Glow (Promega, Madison, Wis.) according to manufacturer's instructions.
The next morning, 3-fold compound dilutions ranging from 10,000 nM to 40 nM were prepared in Proliferation Media containing 1% DMSO. 20 ul of each dilution was added to the SKOV3 cells plated the previous day resulting in a dose response curve from 1000 nM to 4 nM. The cells were incubated for 96 hours and then developed with Cell Titer Glo.
The cell numbers at the end of the assay were determined using the standard curve generated at the start of the assay. Growth inhibition was calculated using the following formulas and GI50s were determined by plotting the % growth inhibition vs. Log compound concentration in GraphPad.
%growth=100×(T−T0)/(C−T0)
T=Cell Number at end of assay T0=Cell Number at start of assay (5000) C=Number of cells in DMSO controls at end of assay
%growth inhibition=100−%growth

The test system of assay [9] is PI3 kinase. Kind of assay: Comparison of covalent and non-covalent inhibitors (Tables 18 and 19): prolonged PD, mechanism. To be noted: Table 18. The method, then:
“A” designates ≦10 nM; “B” designates 10-100 nM; and “C” designates 100-1000 nM

Assay [10] concerns Phospho-Akt(Ser473). Kind of assay: Dose response in SKOV3 cells as determined by in-cell Western. The assay is classed as cell-based. To be noted: Homo sapiens, SK-OV-3. Put shortly: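 SKOV3 cells treated with compound for 1 hr, then formaldehyde-fixed, permeabilised and stained overnight for phospho-Akt(Ser473) with anti-tubulin as a reference. Infrared secondary antibodies read at 680 and 800 nm channels by in-cell Western imaging.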

pEC50, pIC50: −log10 of the molar value. Entries after “also recorded” stand apart in the source; their conditions may differ. Like-named read-outs stand apart in the source and are kept apart here.

T1 sequence (P48736 whole entry): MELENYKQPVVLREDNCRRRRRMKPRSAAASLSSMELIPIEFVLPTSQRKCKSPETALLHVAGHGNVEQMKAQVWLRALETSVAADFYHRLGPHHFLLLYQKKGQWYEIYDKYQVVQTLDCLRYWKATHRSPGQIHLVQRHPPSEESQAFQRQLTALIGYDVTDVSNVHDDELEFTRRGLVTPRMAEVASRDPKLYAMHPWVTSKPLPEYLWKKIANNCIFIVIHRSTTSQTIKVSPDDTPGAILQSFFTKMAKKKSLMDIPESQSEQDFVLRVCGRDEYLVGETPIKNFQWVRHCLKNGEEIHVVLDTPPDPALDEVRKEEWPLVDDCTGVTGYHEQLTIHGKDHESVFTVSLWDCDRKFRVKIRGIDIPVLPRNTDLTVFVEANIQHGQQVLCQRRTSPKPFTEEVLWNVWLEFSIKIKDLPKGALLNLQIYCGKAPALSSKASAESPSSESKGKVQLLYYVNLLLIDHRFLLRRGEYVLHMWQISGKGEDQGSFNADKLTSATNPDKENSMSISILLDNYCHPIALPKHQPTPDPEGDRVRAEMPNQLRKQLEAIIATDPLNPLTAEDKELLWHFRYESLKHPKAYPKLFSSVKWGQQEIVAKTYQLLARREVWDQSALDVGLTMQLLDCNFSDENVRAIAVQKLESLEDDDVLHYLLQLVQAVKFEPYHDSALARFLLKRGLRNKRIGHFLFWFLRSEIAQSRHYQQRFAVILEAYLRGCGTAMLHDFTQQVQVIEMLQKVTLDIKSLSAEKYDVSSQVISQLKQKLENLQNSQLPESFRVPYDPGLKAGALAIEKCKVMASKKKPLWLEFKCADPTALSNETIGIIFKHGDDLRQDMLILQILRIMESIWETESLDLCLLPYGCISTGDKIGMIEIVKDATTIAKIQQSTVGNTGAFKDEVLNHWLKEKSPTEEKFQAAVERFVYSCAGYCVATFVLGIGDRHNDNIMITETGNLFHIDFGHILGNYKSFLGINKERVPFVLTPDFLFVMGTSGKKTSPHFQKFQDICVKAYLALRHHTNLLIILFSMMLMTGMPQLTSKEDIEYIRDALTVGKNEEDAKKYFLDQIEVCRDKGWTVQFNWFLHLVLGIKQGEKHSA
T2 sequence (P42336 whole entry): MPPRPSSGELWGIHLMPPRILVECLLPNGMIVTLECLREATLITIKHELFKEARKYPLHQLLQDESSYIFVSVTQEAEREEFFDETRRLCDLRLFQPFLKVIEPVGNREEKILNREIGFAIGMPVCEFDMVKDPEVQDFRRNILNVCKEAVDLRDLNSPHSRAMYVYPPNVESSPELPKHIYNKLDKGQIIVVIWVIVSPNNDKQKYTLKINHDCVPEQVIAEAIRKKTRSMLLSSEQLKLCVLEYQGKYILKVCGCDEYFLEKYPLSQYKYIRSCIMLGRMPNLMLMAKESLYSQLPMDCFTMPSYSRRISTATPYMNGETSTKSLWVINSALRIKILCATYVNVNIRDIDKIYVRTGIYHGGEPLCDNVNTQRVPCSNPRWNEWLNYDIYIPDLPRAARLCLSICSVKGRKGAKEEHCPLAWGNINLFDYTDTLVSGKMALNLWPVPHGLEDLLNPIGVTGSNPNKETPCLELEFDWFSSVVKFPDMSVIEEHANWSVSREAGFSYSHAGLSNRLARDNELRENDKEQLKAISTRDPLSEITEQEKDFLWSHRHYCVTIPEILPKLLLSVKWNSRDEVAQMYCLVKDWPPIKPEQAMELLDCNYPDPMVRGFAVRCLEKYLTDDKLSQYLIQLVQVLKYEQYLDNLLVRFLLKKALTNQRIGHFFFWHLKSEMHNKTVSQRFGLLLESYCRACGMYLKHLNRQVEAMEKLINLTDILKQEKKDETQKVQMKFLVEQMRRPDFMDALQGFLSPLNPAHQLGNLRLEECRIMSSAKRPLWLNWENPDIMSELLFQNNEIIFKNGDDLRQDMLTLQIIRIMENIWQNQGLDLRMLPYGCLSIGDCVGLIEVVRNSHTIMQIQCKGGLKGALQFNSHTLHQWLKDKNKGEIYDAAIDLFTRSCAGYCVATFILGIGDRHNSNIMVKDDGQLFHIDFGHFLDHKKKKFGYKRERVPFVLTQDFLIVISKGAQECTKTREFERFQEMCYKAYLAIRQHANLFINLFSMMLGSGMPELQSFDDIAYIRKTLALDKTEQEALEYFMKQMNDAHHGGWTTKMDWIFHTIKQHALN
T2 sequence (P27986 whole entry partner): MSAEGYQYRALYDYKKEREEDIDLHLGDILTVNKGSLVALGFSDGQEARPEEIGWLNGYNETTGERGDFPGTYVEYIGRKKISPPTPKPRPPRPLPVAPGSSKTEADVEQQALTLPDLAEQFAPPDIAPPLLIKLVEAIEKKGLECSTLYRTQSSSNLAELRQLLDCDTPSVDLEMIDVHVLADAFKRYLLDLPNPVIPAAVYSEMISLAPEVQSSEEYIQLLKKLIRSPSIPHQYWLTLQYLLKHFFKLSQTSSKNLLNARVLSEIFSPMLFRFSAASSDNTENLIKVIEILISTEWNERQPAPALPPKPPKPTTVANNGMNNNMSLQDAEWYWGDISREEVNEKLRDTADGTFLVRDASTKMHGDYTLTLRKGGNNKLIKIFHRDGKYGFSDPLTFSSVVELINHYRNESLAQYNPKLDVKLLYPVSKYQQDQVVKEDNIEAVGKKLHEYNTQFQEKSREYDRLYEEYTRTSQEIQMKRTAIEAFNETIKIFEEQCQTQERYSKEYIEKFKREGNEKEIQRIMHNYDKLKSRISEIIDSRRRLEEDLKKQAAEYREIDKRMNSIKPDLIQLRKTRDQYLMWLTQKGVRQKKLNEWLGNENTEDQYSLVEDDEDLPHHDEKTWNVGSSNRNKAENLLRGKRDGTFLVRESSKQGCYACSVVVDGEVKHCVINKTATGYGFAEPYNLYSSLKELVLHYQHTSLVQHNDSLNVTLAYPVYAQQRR
Sequence of PI3Kα (P42336 whole entry): as the sequence (P42336 whole entry) above
Sequence of PI3Kα (P27986 322-600 partner limits assumed): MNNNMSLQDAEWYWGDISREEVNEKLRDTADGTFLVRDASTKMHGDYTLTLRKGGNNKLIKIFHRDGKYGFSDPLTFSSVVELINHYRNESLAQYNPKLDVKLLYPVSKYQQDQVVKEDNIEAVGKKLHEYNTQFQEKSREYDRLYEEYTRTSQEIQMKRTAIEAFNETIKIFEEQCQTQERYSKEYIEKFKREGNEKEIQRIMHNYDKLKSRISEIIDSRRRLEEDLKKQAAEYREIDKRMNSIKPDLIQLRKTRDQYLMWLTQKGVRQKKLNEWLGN
T3 sequence (P42338 whole entry): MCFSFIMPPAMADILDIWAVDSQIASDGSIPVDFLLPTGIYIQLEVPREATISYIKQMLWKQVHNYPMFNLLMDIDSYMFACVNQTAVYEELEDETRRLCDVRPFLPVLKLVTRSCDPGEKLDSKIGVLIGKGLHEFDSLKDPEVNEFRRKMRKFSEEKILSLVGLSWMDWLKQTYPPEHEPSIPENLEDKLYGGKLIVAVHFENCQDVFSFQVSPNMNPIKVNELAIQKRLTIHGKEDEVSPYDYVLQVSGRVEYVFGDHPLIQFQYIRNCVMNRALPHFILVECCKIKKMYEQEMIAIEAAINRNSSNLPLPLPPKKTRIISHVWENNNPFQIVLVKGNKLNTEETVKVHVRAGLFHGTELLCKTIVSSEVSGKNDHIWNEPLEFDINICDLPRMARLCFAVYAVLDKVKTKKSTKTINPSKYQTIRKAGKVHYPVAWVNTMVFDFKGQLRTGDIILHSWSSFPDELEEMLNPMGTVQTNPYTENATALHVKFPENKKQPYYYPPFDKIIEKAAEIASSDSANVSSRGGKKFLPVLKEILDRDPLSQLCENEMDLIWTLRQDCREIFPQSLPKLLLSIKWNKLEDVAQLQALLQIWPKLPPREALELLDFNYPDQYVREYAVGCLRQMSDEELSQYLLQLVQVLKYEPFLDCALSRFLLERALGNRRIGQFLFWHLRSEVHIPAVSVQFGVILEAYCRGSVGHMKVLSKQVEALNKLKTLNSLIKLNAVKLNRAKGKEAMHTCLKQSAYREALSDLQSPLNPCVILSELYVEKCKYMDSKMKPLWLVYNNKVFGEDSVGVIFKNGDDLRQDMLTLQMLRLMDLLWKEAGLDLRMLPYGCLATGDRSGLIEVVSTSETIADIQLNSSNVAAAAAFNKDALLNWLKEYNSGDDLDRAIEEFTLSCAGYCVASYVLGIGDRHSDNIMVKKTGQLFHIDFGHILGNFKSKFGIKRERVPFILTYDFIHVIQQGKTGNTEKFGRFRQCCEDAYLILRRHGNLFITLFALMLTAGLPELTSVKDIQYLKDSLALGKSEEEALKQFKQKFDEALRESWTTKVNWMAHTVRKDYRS
T3 sequence (P27986 whole entry partner): as the sequence (P27986 whole entry partner) above

As for `C/C=C/C(=O)CCC(=O)N1CCN(Cc2cc3nc(-c4cccc(O)c4)nc(N4CCOCC4)c3s2)CC1` [II-a-50, (E)-1-(4-((2-(3-hydroxyphenyl)-4-morpholinothieno[3,2-d]pyrimidin-6-yl)methyl)piperazin-1-yl)hept-5-ene-1,4-dione], the results for the pEC50 in assay [1], in [2] and in assay [5] were more than 7.70, 6.00 to 7.00 and 6.00 to 7.00, respectively. Also, the pIC50 in assay [3] was less than 6.00; in assay [6] it was more than 8.00. Also, in assay [4], the “covalent modification of PI3Kα” value is on record as “completely modify”.
Take `C=C(C)C(=O)CCC(=O)N1CCN(Cc2cc3nc(-c4cccc(O)c4)nc(N4CCOCC4)c3s2)CC1` [II-a-49, 1-(4-((2-(3-hydroxyphenyl)-4-morpholinothieno[3,2-d]pyrimidin-6-yl)methyl)piperazin-1-yl)-5-methylhex-5-ene-1,4-dione]: the pEC50 in [1] was more than 7.70; in assay [2], 6.00 to 7.00; in assay [5], 6.00 to 7.00. The pIC50 is less than 6.00 in [3] and 7.00 to 8.00 in [6]. The “covalent modification of PI3Kα” value in assay [4] is recorded as “complete modification; also recorded: covalent modification”. Moreover, the “positive mass shift of PI3Kα” value in [4] came out at 616 Da.
Take `C=C(C)C(=O)CCC(=O)N1CCN(Cc2cc3nc(-c4cccc5[nH]ncc45)nc(N4CCOCC4)c3s2)CC1` [II-a-43, 1-(4-((2-(1H-indazol-4-yl)-4-morpholinothieno[3,2-d]pyrimidin-6-yl)methyl)piperazin-1-yl)-5-methylhex-5-ene-1,4-dione]: the pEC50 in assay [1] is more than 7.70; in assay [2], 6.00 to 7.00; in assay [5], 6.00 to 7.00. The pIC50 in assay [3] was less than 6.00; in [7] it was less than 6.00; in assay [6], 7.00 to 8.00. Moreover, the “covalent modification of PI3Kα” value in assay [4] is on record as “completely modify”.
For `CC(C)=CC(=O)CCC(=O)N1CCN(C(=O)c2cc3nc(-c4cccc5[nH]ncc45)nc(N4CCOCC4)c3s2)CC1` [II-a-160, 1-(4-(2-(1H-indazol-4-yl)-4-morpholinothieno[3,2-d]pyrimidine-6-carbonyl)piperazin-1-yl)-6-methylhept-5-ene-1,4-dione], the GI50 (in general, the concentration at which growth is held to half of that of the control) in assay [8] was in the range of 10 to 100 nM. The pIC50 in assay [7] is less than 6.00; in assay [6] it was 6.00 to 7.00.
Consider `CC/C=C/C(=O)CCC(=O)N1CCN(Cc2cc3nc(-c4cccc5[nH]ncc45)nc(N4CCOCC4)c3s2)CC1` [II-a-53, (E)-1-(4-((2-(1H-indazol-4-yl)-4-morpholinothieno[3,2-d]pyrimidin-6-yl)methyl)piperazin-1-yl)oct-5-ene-1,4-dione], for which the pEC50 was 7.00 to 7.70 in assay [1], 6.00 to 7.00 in [2] and 6.00 to 7.00 in [5]. For the same molecule, the pIC50 in [3] was less than 6.00; in assay [6] it was more than 8.00. Moreover, the “covalent modification of PI3Kα” value in [4] was “completely modify”.
In the case of `CCC(=O)Nc1ccc(CCNC(=O)c2cc3nc(-c4cccc5[nH]ncc45)nc(N4CCOCC4)c3s2)cc1` [II^R-a-148, 2-(1H-indazol-4-yl)-4-morpholino-N-(4-propionamidophenethyl)thieno[3,2-d]pyrimidine-6-carboxamide], the “Prolonged PD” value in assay [9] is given as “No”. The pIC50 is less than 6.00 in assay [3], less than 6.00 in assay [7] and 6.00 to 7.00 in [6]. Further, the pEC50 is 6.00 to 7.00 in assay [10] (SKOV3 cells, 1 hr, read-out: pAKT Inhibition in cell Western) and 6.00 to 7.00 in assay [10] (Table 18, assay not given, classes agree with Table 23, read-out: EC50 pAkt^Ser473).
As to `O=C(/C=C/C1CC1)CCC(=O)N1CCN(Cc2cc3nc(-c4cccc5[nH]ncc45)nc(N4CCOCC4)c3s2)CC1` [II-a-55, (E)-1-(4-((2-(1H-indazol-4-yl)-4-morpholinothieno[3,2-d]pyrimidin-6-yl)methyl)piperazin-1-yl)-6-cyclopropylhex-5-ene-1,4-dione], the pEC50 was 7.00 to 7.70 in assay [1], 5.00 to 6.00 in [2] and 6.00 to 7.00 in assay [5]. In addition, the pIC50 in [3] is less than 6.00; in assay [7] it was less than 6.00; in assay [6], 7.00 to 8.00. In assay [4], the “covalent modification of PI3Kα” value is listed as “completely modify”.
